Measured values from patent publication US8349828B2, “Azatricyclic antibiotic compounds” (Actelion Pharmaceuticals Ltd., priority 2008, dated 2013).

System: M. catarrhalis A894
Test: MIC determination by microdilution in cation-adjusted Mueller-Hinton Broth (CLSI M7-A7)
Format: cell-based
Conditions: Moraxella catarrhalis, A894, microdilution method
Protocol: Minimal inhibitory concentrations (MICs, in mg/l) were determined in cation-adjusted Mueller-Hinton Broth by a microdilution method following the description given in “Methods for Dilution Antimicrobial Susceptibility Tests for Bacteria that Grow Aerobically”, Approved standard, 7th ed., Clinical and Laboratory Standards Institute (CLSI) Document M7-A7, Wayne, Pa., USA, 2006. All Example compounds were tested against several Gram-positive and Gram-negative bacteria.

Row | Compound | MIC [µg/mL]
1 | O=C1CSc2ccc(N3C[C@@H](CNCC4Cn5c(=O)ccc6nccc(c65)O4)OC3=O)cc2N1 (mixture of isomers) [Example 1, 2-(RS)-({[(R)-2-oxo-3-(3-oxo-3,4-dihydro-2H-benzo[1,4]thiazin-6-yl)-oxazolidin-5-ylmethyl]-amino}-methyl)-2,3-dihydro-1-oxa-3a,7-diaza-phenalen-4-one] | ≤ 0.063
2 | O=C1COc2ccc(N3C[C@@H](CNCC4Cn5c(=O)ccc6nccc(c65)O4)OC3=O)cc2N1 (mixture of isomers) [Example 2, 2-(RS)-({[(R)-2-oxo-3-(3-oxo-3,4-dihydro-2H-benzo[1,4]oxazin-6-yl)-oxazolidin-5-ylmethyl]-amino}-methyl)-2,3-dihydro-1-oxa-3a,7-diaza-phenalen-4-one] | 0.5
3 | O=C1CSc2ccc(N3C[C@@H](CNCC4Cc5c(F)ccc6ccc(=O)n(c56)C4)OC3=O)cc2N1 (mixture of isomers) [Example 3, (6RS)-8-fluoro-6-({[(R)-2-oxo-3-(3-oxo-3,4-dihydro-2H-benzo[1,4]thiazin-6-yl)-oxazolidin-5-ylmethyl]-amino}-methyl)-6,7-dihydro-5H-pyrido[3,2,1-ij]quinolin-3-one] | ≤ 0.063
4 | O=C1COc2ccc(N3C[C@@H](CNCC4Cc5c(F)ccc6ccc(=O)n(c56)C4)OC3=O)cc2N1 (mixture of isomers) [Example 4, (6RS)-8-fluoro-6-({[(R)-2-oxo-3-(3-oxo-3,4-dihydro-2H-benzo[1,4]oxazin-6-yl)-oxazolidin-5-ylmethyl]-amino}-methyl)-6,7-dihydro-5H-pyrido[3,2,1-ij]quinolin-3-one] | ≤ 0.063

Results, then the compound that gave them:

Row | MIC [µg/mL] | Compound
5 | ≤ 0.063 | O=C1O[C@H](CNCC2Cc3c(F)ccc4ccc(=O)n(c34)C2)CN1c1ccc2c(c1)OCCO2 (mixture of isomers) [Example 5, (6RS)-6-({[(R)-3-(2,3-dihydro-benzo[1,4]dioxin-6-yl)-2-oxo-oxazolidin-5-ylmethyl]-amino}-methyl)-8-fluoro-6,7-dihydro-5H-pyrido[3,2,1-ij]quinolin-3-one]
6 | ≤ 0.063 | O=C1CSc2ccc(N3C[C@@H](CNCC4Cc5c(F)ccc6ccc(=O)n4c56)OC3=O)cc2N1 (mixture of isomers) [Example 9, (RS)-9-fluoro-2-({[(R)-2-oxo-3-(3-oxo-3,4-dihydro-2H-benzo[1,4]thiazin-6-yl)-oxazolidin-5-ylmethyl]-amino}-methyl)-1,2-dihydro-pyrrolo[3,2,1-ij]quinolin-4-one]
7 | ≤ 0.063 | O=C1CSc2ccc(N3CC(CCNC[C@H]4Cc5c(F)ccc6ccc(=O)n4c56)OC3=O)cc2N1 (mixture of isomers) [Example 10, (R)-9-fluoro-2-({2-[(RS)-2-oxo-3-(3-oxo-3,4-dihydro-2H-benzo[1,4]thiazin-6-yl)-oxazolidin-5-yl]-ethylamino}-methyl)-1,2-dihydropyrrolo[3,2,1-ij]quinolin-4-one]
8 | ≤ 0.063 | O=C1CSc2ccc(N3C[C@@H](CNCC4Cn5c(=O)ccc6cccc(c65)O4)OC3=O)cc2N1 (mixture of isomers) [Example 11, (RS)-2-({[(R)-2-oxo-3-(3-oxo-3,4-dihydro-2H-benzo[1,4]thiazin-6-yl)-oxazolidin-5-ylmethyl]-amino}-methyl)-2,3-dihydro-1-oxa-3a-aza-phenalen-4-one]
9 | ≤ 0.063 | O=C1CSc2ccc(N3C[C@@H](CNCC4Cn5c(=O)ccc6ccc(F)c(c65)O4)OC3=O)cc2N1 (mixture of isomers) [Example 12, (RS)-9-fluoro-2-({[(R)-2-oxo-3-(3-oxo-3,4-dihydro-2H-benzo[1,4]thiazin-6-yl)-oxazolidin-5-ylmethyl]-amino}-methyl)-2,3-dihydro-1-oxa-3a-aza-phenalen-4-one]
10 | ≤ 0.063 | O=C1CSc2ccc(N3C[C@@H](CNCC4Cc5c(F)cnc6ccc(=O)n(c56)C4)OC3=O)cc2N1 (mixture of isomers) [Example 13, (RS)-3-fluoro-5-({[(R)-2-oxo-3-(3-oxo-3,4-dihydro-2H-benzo[1,4]thiazin-6-yl)-oxazolidin-5-ylmethyl]-amino}-methyl)-5,6-dihydro-4H-1,6a-diaza-phenalen-7-one]
